According to patent US7550438B2, “Methods for production of growth-promoting proteins and peptides for kidney epithelial cells” (The University of Chicago, priority 1997, dated 2009):

Assays:
[1] = tested on: monkey kidney epithelial cells of the BSC-1 line; experiment: Growth-promoting (mitogenic) activity: number of cells in BSC-1 cultures counted four days after addition; assay type: cell-based, African green monkey
Protocol: For the assay, cells were detached from the dish with a solution of trypsin and an aliquot was counted in a hemocytometer.
Nontransformed monkey kidney epithelial cells of the BSC-1 line were grown to confluence in Dulbecco's modified Eagle's medium containing 1% calf serum and […] in 55-mm culture dishes at 38° C. in a CO2 incubator. When cells achieved a density of about 10^6 per dish, the spent medium was removed and replaced with fresh medium containing 0.5% calf serum and the 14-amino acid peptide (0.5 μg/ml). Additions of each of the mitogenic signals at maximal concentration were made to the culture medium. Four days later the number of cells in each culture was counted in a hemocytometer. Values obtained were the mean of 3 separate cultures.
Nontransformed monkey kidney epithelial cells of the BSC-1 line were grown to confluence in Dulbecco's modified Eagle's medium containing 1% calf serum and 1.6 μM biotin at 38° C. in a CO2 incubator. When cells achieved a density of about 10^6 per dish, the spent medium was removed and replaced with fresh medium containing 0.5% calf serum and different amounts of the two peptides. Four days later the number of cells in each culture was counted. Each value is the mean of 3 separate cultures.
To delineate the sequence of the smallest peptide that could stimulate renal cell growth, synthetic peptides of different lengths were prepared (see below), and purified by reversed-phase HPLC on a C18 column.
The peptide of interest was then purified on a reversed-phase C18 column HPLC as described herein using a gradient of 1-80% acetonitrile in 0.1% trifluroacetic acid (TFA). The purified peptide was then lyophilized to remove the acetonitrile and TFA and the lyophilized powder was weighed, dissolved in buffer and added to the culture medium to measure its effect on the growth of monkey kidney epithelial cells as described herein. […] A value termed the K1/2, was used.

3T3 fibroblasts = experiment: Growth of 3T3 fibroblasts; assay type: cell-based, murine
[2] = Stability of growth-promoting activity to storage, enzyme, chemicals, heat and solvents; assay type: physicochemical
Excerpt: For the assay, cells were detached from the dish with a solution of trypsin and an aliquot was counted in a hemocytometer. […] Thus WGF stimulated cell proliferation by 30% in this assay. When high-density, quiescent cultures (3×10^6 cells/55-mm dish) were used to assay mitogenic activity by measuring [^3H]thymidine incorporation into DNA, WGF enhanced DNA synthesis about 60%. To prepare WGF, cells can be scrape-wounded every other day, yet maximal activity will be released into the conditioned medium. WGF is mitogenic for both sparse and confluent cultures of BSC-1 cells, and is stable upon storage at 4° C. to −40° C. for many weeks.
WGF activity was also stable in 0.1% trifluoroacetic acid (TFA) (J. T. Baker, HPLC grade) and isopropanol.

BSC-1 cells = experiment: Appearance or release of WGF growth-promoting activity from BSC-1 cells (scrape wounding, heparinase); assay type: cell-based, African green monkey; conditions: confluent monolayer treated with the enzyme
Protocol: None of these agents inhibited cell growth when added to cells of nonwounded cultures. When added to the medium after the appearance of WGF mitogenic activity, neither PMSF nor aprotinin appeared to inhibit the increment in cell proliferation.
Confluent monolayer cultures were mechanically scraped using a 200 μL pipet tip (Continental Laboratory Products, San Diego, Calif.). […] (This process of scraping the cells has been termed “wounding” and has been used for many years as a model system to study repair of corneal abrasions of the eye. In effect, pressure is applied to cells sufficient to disrupt intercellular adhesion). To determine whether kidney epithelial cells released an autocrine growth factor into the medium after wounding, conditioned culture medium was removed from the culture dish after scrape-wounding a monolayer of BSC-1 cells. An aliquot was assayed for any growth-promoting activity on a nonwounded “detector” culture (1.2×10^6 cells per […]).
Treatment of a confluent monolayer of BSC-1 cells with the enzyme heparinase I (Sigma), but not heparinase III (Sigma), releases WGF mitogenic activity from cells into the culture media. However, this seems to deplete WGF, at least temporarily. When cells are first treated with heparinase I, rinsed, the media aspirated, and the monolayer is then scrape-wounded, no growth-promoting activity is detected in the conditioned media.

AQPYPQGNHEA
combined mitogenic effect with WGF (additivity) ([1]; maximal concentrations, 11-mer with wound conditioned buffer): not additive
mitogenic activity on BSC-1 cells (in words) ([1]; peptide 0.5 to 20 μg/ml, four days): to the same extent as did purified WGF protein
EC50 ([1]; peptide alone, BSC-1 cells, 4 days in culture, read-out: Growth-Stimulation K½): 260 nM
mitogenic activity on 3T3 fibroblasts (3T3 fibroblasts): did not stimulate growth

basic fibroblast growth factor [basic FGF, reference compound]
concentration equivalent in mitogenic potency to partially-purified WGF [1]: 0.02 ng/mL
stimulation of growth (increase in cell number compared to control at four days) ([1]; agent alone at maximal mitogenic concentration (14-Ser 0.5 μg/ml; EGF, IGF-I 50 ng/ml; acidic FGF 100 pg/ml; basic FGF 1,000 pg/ml; vasopressin 75 pg/ml; K 10.4 mM; Na 180 mM)): 18%
stimulation of growth in the presence of the 14-Ser peptide ([1]; mitogenic signal at maximal concentration plus 14-Ser peptide 0.5 μg/ml, four days): 41%
inhibition of mitogenic activity by 55% acetonitrile/0.1% (TFA) [2]: 90%

B1: heparinase III: enzyme heparinase III (Sigma) (protein, UniProt Q59289 25-659, looked up)
Heparin-sulfate lyase: QSSSITRKDFDHINLEYSGLEKVNKAVAAGNYDDAAKALLAYYREKSKAREPDFSNAEKPADIRQPIDKVTREMADKALVHQFQPHKGYGYFDYGKDINWQMWPVKDNEVRWQLHRVKWWQAMALVYHATGDEKYAREWVYQYSDWARKNPLGLSQDNDKFVWRPLEVSDRVQSLPPTFSLFVNSPAFTPAFLMEFLNSYHQQADYLSTHYAEQGNHRLFEAQRNLFAGVSFPEFKDSPRWRQTGISVLNTEIKKQVYADGMQFELSPIYHVAAIDIFLKAYGSAKRVNLEKEFPQSYVQTVENMIMALISISLPDYNTPMFGDSWITDKNFRMAQFASWARVFPANQAIKYFATDGKQGKAPNFLSKALSNAGFYTFRSGWDKNATVMVLKASPPGEFHAQPDNGTFELFIKGRNFTPDAGVFVYSGDEAIMKLRNWYRQTRIHSTLTLDNQNMVITKARQNKWETGNNLDVLTYTNPSYPNLDHQRSVLFINKKYFLVIDRAIGEATGNLGVHWQLKEDSNPVFDKTKNRVYTTYRDGNNLMIQSLNADRTSLNEEEGKVSYVYNKELKRPAFVFEKPKKNAGTQNFVSIVYPYDGQKAPEISIRENKGNDFEKGKLNLTLTINGKQQLVLVP
release of WGF mitogenic activity from cells into the culture media (BSC-1 cells): not
